Test results as given in paper PMC10899790, “A bromodomain-independent mechanism of gene regulation by the BET inhibitor JQ1: direct activation of nuclear receptor PXR” (Nucleic Acids Research, 2023).

Assays:
[1] = target: T1, human PXR (Homo sapiens, UniProt O75469); assay: PXR transactivation assay (CYP3A4-luciferase reporter)
T1 sequence (O75469 1-434): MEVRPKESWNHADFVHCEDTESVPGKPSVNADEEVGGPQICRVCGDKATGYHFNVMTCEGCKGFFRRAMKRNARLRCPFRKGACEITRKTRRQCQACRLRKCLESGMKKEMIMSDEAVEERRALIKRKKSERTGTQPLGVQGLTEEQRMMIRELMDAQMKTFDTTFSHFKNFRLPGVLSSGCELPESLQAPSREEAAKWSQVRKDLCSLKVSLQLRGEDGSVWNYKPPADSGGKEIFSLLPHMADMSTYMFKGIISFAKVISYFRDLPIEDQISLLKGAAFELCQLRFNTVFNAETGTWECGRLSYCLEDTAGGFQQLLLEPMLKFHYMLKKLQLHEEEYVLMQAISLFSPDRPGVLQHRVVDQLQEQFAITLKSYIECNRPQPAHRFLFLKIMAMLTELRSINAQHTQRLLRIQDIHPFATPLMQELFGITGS
Description: Assays were performed similarly as previously described with minor modifications ([30–32]). HepG2 cells (7.5 × 10^5/well) were plated in six-well tissue culture-treated plates. The following day, cells were co-transfected with pGL3-CYP3A4-luc (2 μg/well), pRL-CMV (200 ng/well) and 100 ng/well of either empty vector (pcDNA3), pcDNA3-FLAG-PXR, pCMV6-mPXR or pGL4.53-PGK-PXR using Lipofectamine 3000 (Thermo Fisher Scientific). Twenty-four hours after transfection, cells were trypsinized and suspended in phenol red-free DMEM (Thermo Fisher Scientific) supplemented with 5% charcoal/dextran-treated FBS (HyClone), and 1 × 10^4 cells/well in 25 μl media were added to white 384-well plates. […] After 24 h, the Dual-Glo Luciferase Assay System (Promega) and EnVision microplate reader (PerkinElmer) were used to measure firefly and Renilla luciferase activities. CMV-driven Renilla luciferase was used as an indicator of general transcriptional modulation by the test compounds and is plotted as fold change (FC) relative to DMSO controls. Assays utilizing pGL4.54[luc2/TK], pGL4.53[luc2/PGK], or pGL4.13[luc2/SV40] were similarly performed and normalized. For the PXR-responsive CYP3A4-luciferase reporter, the measured relative light units (RLU) were normalized for each well using equation (1),
RLUT0901317 represents the measured RLU from wells containing 1 μM T0901317. For mPXR assays, 5 μM PCN was used in place of T0901317.

[2] = target: T2, PXR LBD (Homo sapiens, UniProt O75469); assay: TR-FRET PXR LBD NCoR recruitment and release assays; type: biochemical; settings: TR-FRET in the presence of 1 μM SPA70
T2 construct: GST-PXR LBD protein (cat. # PV4841) were purchased from Thermo Fisher Scientific; purchased Thermo Fisher Scientific PV4841
T2 sequence (O75469 146-433 limits assumed): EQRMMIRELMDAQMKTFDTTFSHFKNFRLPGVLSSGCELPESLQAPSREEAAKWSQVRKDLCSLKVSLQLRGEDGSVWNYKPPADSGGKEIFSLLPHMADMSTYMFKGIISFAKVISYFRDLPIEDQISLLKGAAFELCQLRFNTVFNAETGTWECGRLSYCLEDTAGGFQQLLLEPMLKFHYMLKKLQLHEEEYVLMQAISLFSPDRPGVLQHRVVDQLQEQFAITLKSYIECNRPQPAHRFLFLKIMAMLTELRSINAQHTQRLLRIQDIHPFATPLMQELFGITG
Description: The TR-FRET PXR LBD NCoR recruitment assay was similarly performed, but with 500 nM FAM-NCoR peptide. Data were normalized using equations (2) and (3) with 10 μM SPA70 in place of T0901317 as the control. For the NCoR release assay, all wells contained 1 μM SPA70 to induce PXR LBD interaction with NCoR, and dose responses of agonists were used to disrupt the PXR LBD/SPA70/NCoR complex. In the release assay, 1 μM SPA70 alone served as the 100% control, and DMSO alone served as the 0% control. NCoR release assay wells contained 0.4% DMSO due to the two-compound addition.

[3] = target: T3, PXR LBD (Homo sapiens, UniProt O75469); assay: Cellular PXR LBD SRC-1 recruitment assay (NanoBiT); type: cell-based; settings: HepG2, NanoBiT, 30 min; 100 nM T0901317 or 5 μM other compound
T3 construct: pcDNA3-SmBiT-PXR LBD (residues 139–434); expressed in transfected cells; host or cells: HepG2
T3 sequence (O75469 139-434): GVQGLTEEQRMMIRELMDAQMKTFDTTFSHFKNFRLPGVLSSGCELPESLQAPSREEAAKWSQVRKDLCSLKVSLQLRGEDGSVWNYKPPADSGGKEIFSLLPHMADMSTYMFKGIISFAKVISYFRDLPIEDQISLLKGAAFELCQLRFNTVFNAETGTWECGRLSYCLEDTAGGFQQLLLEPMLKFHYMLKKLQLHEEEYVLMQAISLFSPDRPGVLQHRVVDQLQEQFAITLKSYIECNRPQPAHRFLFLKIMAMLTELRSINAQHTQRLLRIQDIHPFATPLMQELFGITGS
T3 sequence (Q15788 621-765 partner limits assumed): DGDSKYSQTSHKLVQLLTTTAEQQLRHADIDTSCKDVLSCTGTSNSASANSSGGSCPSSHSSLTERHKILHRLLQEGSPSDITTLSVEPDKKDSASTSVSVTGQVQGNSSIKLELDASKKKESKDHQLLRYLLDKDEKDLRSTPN
Description: Nano Luciferase Binary Technology (NanoBiT) ([33]) was used to assess the interaction of SRC-1 with PXR LBD in HepG2 cells (Supplementary Figure S4). […] The following day, cells were co-transfected with pcDNA3-SmBiT-PXR LBD (100 ng/well) and pcDNA3-LgBiT-SRC-1 (100 ng/well) using Lipofectamine 3000. Empty vector (pcDNA3, 800 ng/well) was used as carrier DNA due to the low amounts of expression plasmids used. […] After 24 h, 5 μl media containing 2.5% DMSO, 5X Nano-Glo Live Cell Substrate from the Nano-Glo Live Cell Assay System (Promega), and 5× concentration of compound was added, resulting in 0.5% DMSO and either 100 nM T0901317 or 5 μM other compound. The plates were incubated for 30 min at RT, and Nano Luciferase activity was then measured with an EnVision microplate reader.

[4] = test system: CMV promoter; assay: CMV-Renilla luciferase reporter; type: cell-based, human; settings: HepG2, 24 h; fold change relative to DMSO
[5] = test system: CYP3A4; settings: cited from earlier work

## Cc1sc2c(c1C)C(c1ccc(Cl)cc1)=N[C@@H](CC(=O)OC(C)(C)C)c1nnc(C)n1-2 [JQ1, (+)-JQ1]
[1]; HepG2, 24 h, PGK-driven PXR
  activation of CYP3A4-luciferase reporter with PXR expressed from a PGK promoter: retained activation of the CYP3A4-luciferase reporter
[1]; human
  activation of PXR-responsive CYP3A4-luciferase reporter: activated the CYP3A4-luciferase reporter with potency comparable to that of the prototypical PXR agonist rifampicin (Figure 2A) but with slightly reduced efficacy
[2]
  inhibition of SPA70-mediated NCoR recruitment (NCoR release): inhibited SPA70-mediated NCoR recruitment
[3]
  SRC-1 recruitment to PXR LBD in cells: JQ1 > birabresib > CPI-203
[4]
  CMV-Renilla luciferase reporter expression: robustly activated Renilla luciferase expression from a CMV promoter
[5]
  CYP3A4 substrate: is a CYP3A4 substrate
